The test system of assay [1] is HCC1143 (Breast Carcinoma). Nature of the assay: Bliss excess, mean over the matrix (fraction); higher = more synergy. A digest of the protocol:
(§1)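 After 24 hours at 37°C and 5% CO2 in 1536-well plates, cells in DMEM/F12 or RPMI plus 10% FBS received two-drug dose matrices for 72 hours. Viability came from CellTiter-Glo 2.0 luminescence and was scaled as inhibition, anchored at 0 by vehicle wells and at 1 by blank wells. Combination Emax is taken as the second-highest inhibition in the matrix, and Bliss excess as the observed combination effect less EA + EB − EA·EB, with EA and EB the single-agent effects.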

The subject of assay [2] is SW48 (Colorectal Carcinoma). The assay is described as above. In outline:
as §1

Assay [3] has as its system TYK-nu (Ovarian Carcinoma). Described as above. In outline:
as §1

The test system of assay [4] is WSU-DLCL2 (B-Cell Non-Hodgkin's Lymphoma). The description is as above. In outline: as §1
Assay [5] has as its system HuO9 (Osteosarcoma). The assay is described as above. A digest of the protocol: as §1
In assay [6] the test system is SNG-M (Endometrial Carcinoma). The description is as above. In outline:
as §1

In assay [7] the test system is KG-1 (Acute Myeloid Leukemia). The assay is described as above. A digest of the protocol:
as §1

The test system of assay [8] is CAL-39 (Other Solid Carcinomas). The assay is described as above. In outline:
as §1

Assay [9] has as its system SKN-3 (Head and Neck Carcinoma). The assay is described as above. A digest of the protocol:
as §1

In assay [10] the test system is P31-FUJ (Acute Myeloid Leukemia). The assay is described as above. In outline: as §1
Assay [11] has as its system MSTO-211H (Mesothelioma). The assay is described as above. A digest of the protocol:
as §1

In assay [12] the test system is SNU-61 (Colorectal Carcinoma). The description is as above. In outline: as §1
Assay [13] deals with HLE (Hepatocellular Carcinoma). Described as above. A digest of the protocol:
as §1

Assay [14] concerns BICR78 (Oral Cavity Carcinoma). The assay is described as above. In outline:
as §1

The test system of assay [15] is HCC1143 (Breast Carcinoma). Nature of the assay: combination Emax (second highest fraction inhibited in the dose matrix, 72 h); higher = more inhibition; extreme values may be limits of the assay. In outline:
as §1

Assay [16] concerns YT (Other Blood Carcinomas). The description is as above. A digest of the protocol: as §1
Assay [17] has as its system PA-TU-8902 (Pancreatic Carcinoma). The description is as above. In outline:
as §1

Assay [18] concerns EFM-192A (Breast Carcinoma). Described as above. A digest of the protocol:
as §1

Assay [19] relates to 647-V (Bladder Carcinoma). The assay is described as above. In outline:
as §1

Assay [20] relates to SK-LMS-1 (Other Solid Carcinomas). Described as above. In outline:
as §1
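Wherever Bliss excess, mean over the matrix is given: after 72 h of two-drug dosing.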

On to `CCN(CCO)CCCOc1ccc2c(Nc3cc(CC(=O)Nc4cccc(F)c4)[nH]n3)ncnc2c1` [AZD2811] + C=CCn1c(=O)c2cnc(Nc3ccc(N4CCN(C)CC4)cc3)nc2n1-c1cccc(C(C)(C)O)n1 [AZD1775] (first compound max 1 µM, partner max 1 µM), for which the Bliss excess is 0.0147 in assay [1]; -0.013 in assay [2]; -0.0586 in assay [3]; 0.013 in assay [4]; 0.0204 in assay [5]; -0.0356 in assay [6]. Besides, the Bliss excess in assay [7] was 0.0591; in assay [8], -0.0078; in [9] it was -0.0154; in assay [10] it was -0.0615; in assay [11], 0.0387; in assay [12], 0.0108. In addition, the Bliss excess in [13] worked out at 0.09; in [14], 0.0338. The “combination Emax” value in assay [15] is 0.623; in [16] it was 0.888; in assay [17], 0.222; in assay [18], 0.239; in [19], 0.491; in assay [20] it was 0.436.

Regarding `CCN(CCO)CCCOc1ccc2c(Nc3cc(CC(=O)Nc4cccc(F)c4)[nH]n3)ncnc2c1` [AZD2811] + C[C@@H]1COCCN1C2=NC(=NC(=C2)C3(CC3)[S@](=N)(=O)C)C4=C5C=CNC5=NC=C4 [AZD6738] (first compound max 1 µM, 7x7, partner max 10 µM), the Bliss excess was -0.0291 in assay [1]; -0.0228 in [2]; -0.0244 in assay [3]; -0.0431 in [4]; -0.0491 in [5]; -0.0273 in assay [6]. Besides, the Bliss excess is -0.0332 in assay [7]; 0.0015 in assay [8]; -0.0167 in assay [9]; -0.0332 in assay [10]; -0.0279 in assay [11]; -0.0434 in [12]. The Bliss excess in assay [13] is 0.0179; in assay [14], -0.0215. Also, the “combination Emax” value in [15] stood at 0.824; in [16], 0.76; in [17], 0.216; in assay [18], 0.233; in assay [19] it was 0.524; in assay [20] it was 0.551.

As for `CCN(CCO)CCCOc1ccc2c(Nc3cc(CC(=O)Nc4cccc(F)c4)[nH]n3)ncnc2c1` [AZD2811] + O=C(c1cc(Cc2n[nH]c(=O)c3ccccc23)ccc1F)N1CCN(C(=O)C2CC2)CC1 [Olaparib] (first compound max 1 µM, 7x7, partner max 10 µM), the Bliss excess was 0.015 in assay [1]; 0.0145 in assay [2]; -0.0152 in [3]; 0.0463 in assay [4]; 0.0215 in assay [5]; -0.018 in assay [6]. Moreover, the Bliss excess in [7] was 0.0382; in assay [8], 0.0017; in [9], -0.0236; in assay [10], -0.0895; in assay [11], 0.0178; in assay [12], -0.0184. Further, the Bliss excess in [13] was 0.004; in [14], -0.0114. In addition, the “combination Emax” value in assay [15] was determined as 0.372; in [16] it was 0.309; in assay [17] it was 0.187; in assay [18] it was 0.212; in assay [19], 0.275; in [20], 0.367.

On to `C[C@@H]1COCCN1c1cc(C2([S@](C)(=N)=O)CC2)nc(-c2ccnc3[nH]ccc23)n1` [AZD6738] + O=C(c1cc(Cc2n[nH]c(=O)c3ccccc23)ccc1F)N1CCN(C(=O)C2CC2)CC1 [Olaparib] (first compound max 10 µM, 7x7, partner max 10 µM), for which the Bliss excess in assay [1] is -0.0284; in [2], -0.0367; in [3], -0.0674; in [4], -0.0119; in assay [5], -0.0166; in [6], 0.0294. Moreover, the Bliss excess was -0.0154 in [7]; -0.0217 in assay [9]; -0.0848 in assay [10]; -0.0082 in assay [11]; -0.0019 in [12]; -0.0562 in assay [13]. In addition, the Bliss excess in assay [14] was -0.0431. Also, the “combination Emax” value in [15] was found to be 0.701; in [16] it was 0.75; in assay [17], 0.195; in assay [18], 0.32; in assay [19] it was 0.61; in assay [20] it was 0.529.

On to `CS(=O)(=O)CCNCc1ccc(-c2ccc3ncnc(Nc4ccc(OCc5cccc(F)c5)c(Cl)c4)c3c2)o1` [Lapatinib] + Cn1cnc2c(F)c(Nc3ccc(Br)cc3Cl)c(C(=O)NOCCO)cc21 [Selumetinib] (first compound max 10 µM, 7x7, partner max 10 µM), for which the Bliss excess in assay [2] was 0.146; in [4] it was 0.0044; in [6] it was -0.071; in assay [8], -0.0923; in [10] it was -0.0118; in assay [11], -0.0401. Further, the Bliss excess is 0.0068 in [13] and -0.0343 in assay [14]. The results for the “combination Emax” value in assay [16] and in [20] were 0.725 and 0.402, respectively.

Take `CS(=O)(=O)CCNCc1ccc(-c2ccc3ncnc(Nc4ccc(OCc5cccc(F)c5)c(Cl)c4)c3c2)o1` [Lapatinib] + NC1(c2ccc(-c3nc4ccn5c(=O)[nH]nc5c4cc3-c3ccccc3)cc2)CCC1 [MK-2206] (first compound max 10 µM, 7x7, partner max 10 µM): the Bliss excess was -0.0213 in [1]; 0.0412 in assay [2]; -0.0165 in [3]; 0.0058 in assay [4]; 0.0257 in assay [5]; 0.0254 in assay [6]. Also, the Bliss excess is -0.0006 in assay [8]; -0.0508 in assay [9]; -0.062 in [10]; -0.0466 in [11]; -0.0136 in assay [13]; 0.0068 in [14]. Further, the “combination Emax” value in [15] was 0.89; in assay [16] it was 0.945; in assay [17] it was 0.72; in assay [20], 0.927.

Consider `CCc1c2c(nc3ccc(O)cc13)-c1cc3c(c(=O)n1C2)COC(=O)[C@]3(O)CC` [SN-38] + O=C(c1cc(Cc2n[nH]c(=O)c3ccccc23)ccc1F)N1CCN(C(=O)C2CC2)CC1 [Olaparib] (first compound max 0.3 µM, 7x7, partner max 10 µM), for which the Bliss excess in assay [2] is 0.028; in assay [3], -0.0067; in [4] it was 0.0564; in assay [5], 0.0687; in [6], 0.0565; in assay [8], 0.081. The Bliss excess is 0.0648 in [10], 0.0376 in assay [11], 0.0335 in [13] and 0.0587 in assay [14]. Moreover, the “combination Emax” value in assay [16] stood at 0.895; in assay [17], 0.428; in [20] it was 0.889.

For the compound `Cc1nc(-c2cn3c(n2)-c2ccc(-c4cnn(C(C)(C)C(N)=O)c4)cc2OCC3)n(C(C)C)n1` [Taselisib] + O=C(Nc1ccc2[nH]nc(-c3ccncc3)c2c1)[C@@H]1CCN(CC(=O)N2CCN(c3ccc(-c4ncccn4)cc3)CC2)C1 [SCH772984] (first compound max 10 µM, 7x7, partner max 5 µM), the Bliss excess in assay [2] was 0.203; in assay [4] it was 0.0062; in assay [6] it was -0.0211; in assay [8], 0.0609; in assay [10], 0.0477; in assay [11] it was 0.131. For the same compound, the Bliss excess is 0.0366 in [13] and -0.011 in [14]. Besides, the “combination Emax” value turned out to be 0.597 in assay [16] and 0.924 in assay [20].

For the origin of these results see the supplement of paper PMC11061612.
